Tests used:
[1] = 97.6 kPa, Liquid; for viscosity: Capillary tube (Ostwald / Ubbelohde) method; for mass density: Vibrating tube method
[2] = xn = mol fraction of the nth substance listed; settings: 97.6 kPa, Liquid, x2 = 0; for viscosity: Capillary tube (Ostwald / Ubbelohde) method; for mass density: Vibrating tube method

CCCCCCCC[n+]1ccn(C)c1.[Cl-] [1-methyl-3-octylimidazolium chloride]
[1]
Settings	mass density [kg/m3]	viscosity [mPa·s]
303.15 K	1006.2	7339.7
308.15 K	1003.33	4272.9
313.15 K	1000.48	2766.9
318.15 K	997.64	1788.6
323.15 K	994.82	1198.7
328.15 K	992	828.3
333.15 K	989.17	588.69
338.15 K	986.38	426.28
343.15 K	983.63	316.66
348.15 K	980.88	237.14
353.15 K	978.13	181.41

CC(=O)N(C)C [N,N-dimethylethanamide]
[1]
Settings	mass density [kg/m3]	viscosity [mPa·s]
303.15 K	931.85	0.89
308.15 K	927.26	0.83
313.15 K	922.66	0.78
318.15 K	918.06	0.74
323.15 K	913.44	0.7
328.15 K	908.81	0.66
333.15 K	904.16	0.63
338.15 K	899.53	0.6
343.15 K	894.87	0.57
348.15 K	890.19	0.54
353.15 K	885.51	0.52

CC(=O)N(C)C [N,N-dimethylethanamide] + CCCCCCCC[n+]1ccn(C)c1.[Cl-]
[2]
Settings	mass density [kg/m3]	viscosity [mPa·s]
303.15 K	931.85	0.89
308.15 K	927.26	0.83
313.15 K	922.66	0.78
318.15 K	918.06	0.74
323.15 K	913.44	0.7
328.15 K	908.81	0.66
333.15 K	904.16	0.63
338.15 K	899.53	0.6
343.15 K	894.87	0.57
348.15 K	890.19	0.54
353.15 K	885.51	0.52

C[S+](C)[O-] [dimethyl sulfoxide]
[1]
Settings	mass density [kg/m3]	viscosity [mPa·s]
303.15 K	1090.29	1.8
308.15 K	1085.28	1.66
313.15 K	1080.3	1.53
318.15 K	1075.31	1.41
323.15 K	1070.32	1.3
328.15 K	1065.33	1.21
333.15 K	1060.34	1.13
338.15 K	1055.34	1.06
343.15 K	1050.35	0.99
348.15 K	1045.34	0.93
353.15 K	1040.33	0.88

C[S+](C)[O-] [dimethyl sulfoxide] + CCCCCCCC[n+]1ccn(C)c1.[Cl-]
[2]
Settings	mass density [kg/m3]	viscosity [mPa·s]
303.15 K	1090.29	1.8
308.15 K	1085.28	1.66
313.15 K	1080.3	1.53
318.15 K	1075.31	1.41
323.15 K	1070.32	1.3
328.15 K	1065.33	1.21
333.15 K	1060.34	1.13
338.15 K	1055.34	1.06
343.15 K	1050.35	0.99
348.15 K	1045.34	0.93
353.15 K	1040.33	0.88

CN(C)C=O [dimethylformamide]
[1]
Settings	mass density [kg/m3]	viscosity [mPa·s]
303.15 K	939.18	0.77
308.15 K	934.41	0.72
313.15 K	929.64	0.68
318.15 K	924.86	0.65
323.15 K	920.07	0.62
328.15 K	915.26	0.59
333.15 K	910.44	0.56
338.15 K	905.6	0.54
343.15 K	900.74	0.51
348.15 K	895.87	0.49
353.15 K	890.98	0.47

CN(C)C=O [dimethylformamide] + CCCCCCCC[n+]1ccn(C)c1.[Cl-]
[2]
Settings	mass density [kg/m3]	viscosity [mPa·s]
303.15 K	939.18	0.77
308.15 K	934.41	0.72
313.15 K	929.64	0.68
318.15 K	924.86	0.65
323.15 K	920.07	0.62
328.15 K	915.26	0.59
333.15 K	910.44	0.56
338.15 K	905.6	0.54
343.15 K	900.74	0.51
348.15 K	895.87	0.49
353.15 K	890.98	0.47

c1ccncc1 [pyridine]
[1]
Settings	mass density [kg/m3]	viscosity [mPa·s]
303.15 K	973.09	0.84
308.15 K	968.06	0.79
313.15 K	963.02	0.74
318.15 K	957.97	0.7
323.15 K	952.9	0.66
328.15 K	947.82	0.62
333.15 K	942.72	0.59
338.15 K	937.6	0.56
343.15 K	932.46	0.53
348.15 K	927.3	0.51
353.15 K	922.12	0.48

c1ccncc1 [pyridine] + CCCCCCCC[n+]1ccn(C)c1.[Cl-]
[2]
Settings	mass density [kg/m3]	viscosity [mPa·s]
303.15 K	973.09	0.84
308.15 K	968.06	0.79
313.15 K	963.02	0.74
318.15 K	957.97	0.7
323.15 K	952.9	0.66
328.15 K	947.82	0.62
333.15 K	942.72	0.59
338.15 K	937.6	0.56
343.15 K	932.46	0.53
348.15 K	927.3	0.51
353.15 K	922.12	0.48

Reference: the NIST ThermoML archive (doi:10.1021/acs.jced.7b00002)
